Laboratory results taken from ChEMBL document CHEMBL6182947, “Discovery of Phloroglucinol Derivatives as a New Type of Nonnucleoside Inhibitors with Anti-herpes Simplex Virus Type 1 Activity” (J Med Chem, 2025).

Key:
[1] = system: Human alphaherpesvirus 1; test: Antiviral activity against ACV-resistant HSV1 Blue infected in African green monkey Vero cells assessed as reduction of virus-induced cytopathic effect measured after 48 hrs of incubation; type: functional, organism-based; details: Human alphaherpesvirus 1, Blue
[2] = system: Human alphaherpesvirus 1; test: Antiviral activity against HSV1 infected in African green monkey Vero cells assessed as reduction of virus-induced cytopathic effect measured after 48 hrs of incubation; type: functional, organism-based; details: Human alphaherpesvirus 1, Vero
[3] = Selectivity index, ratio of CC50 for Cytotoxicity against african green monkey Vero cells to IC50 for Antiviral activity against HSV1 infected in African green monkey Vero cells; type: toxicity, cell-based; details: read-out: Selectivity Index
[4] = Cytotoxicity against African green monkey Vero cells assessed as cell viability measured after 24 hrs incubation by MTT assay; type: toxicity, cell-based; details: chlorocebus sabaeus
[5] = system: Human alphaherpesvirus 1; test: Antiviral activity against ACV-resistant HSV1 153 infected in African green monkey Vero cells assessed as reduction of virus-induced cytopathic effect measured after 48 hrs of incubation; type: functional, organism-based; details: Human alphaherpesvirus 1, 153, Vero

Structure (SMILES)	IC50 [1]	IC50 [2]	selectivity ratio [3]	CC50 at 24 h [4]	IC50 [5]
CC(C)CC1C2=C(Oc3cc(O)c(C(=O)Cc4ccccc4)c(O)c31)C(C)(C)C(=O)C(C)(C)C2=O (stereo not drawn)	0.3 µM	0.4 µM	21.2	8.5 µM	0.5 µM
CC(C)CC(O)c1c(O)cc2c(c1O)C(CC(C)C)C1=C(O2)C(C)(C)C(=O)C(C)(C)C1=O (stereo not drawn)		> 100 µM		> 100 µM	
CC(C)CC(=O)c1ccc2c(c1O)C(CC(C)C)C1=C(O2)C(C)(C)C(=O)C(C)(C)C1=O (stereo not drawn)		50 µM		> 100 µM	
CC(C)CC1C2=C(Oc3cc(O)c(C(=O)C(C)C)c(O)c31)C(C)(C)C(=O)C(C)(C)C2=O (stereo not drawn)	0.3 µM	0.63 µM	17.8	7 µM	0.4 µM
COc1c(C(=O)CC(C)C)c(O)cc2c1C(CC(C)C)C1=C(O2)C(C)(C)C(=O)C(C)(C)C1=O (stereo not drawn)		50 µM		> 100 µM	
CC(C)CC(=O)c1c(O)cc(O)c2c1OC1=C(C(=O)C(C)(C)C(=O)C1(C)C)C2CC(C)C (racemic)		2.25 µM	4.44	10 µM	
CC(C)CC(=O)c1c(O)c(C=O)c2c(c1O)C(CC(C)C)C1=C(O2)C(C)(C)C(=O)C(C)(C)C1=O (stereo not drawn)		2.5 µM	3.6	9 µM	
CC(C)CC(=O)c1c(O)cc(O)c2c1OC1=C(C(=O)C(C)(C)C(=O)C1(C)C)C2c1ccccc1 (racemic)		2.5 µM	5.11	12.8 µM	
CC(C)CC1C2=C(Oc3cc(O)c(C=O)c(O)c31)C(C)(C)C(=O)C(C)(C)C2=O (stereo not drawn)		4.5 µM	3.56	16 µM	
CC(C)CC(=O)c1c(O)cc2c(c1O)C(CC(C)C)C1=C(CCC(C)(C)C1=O)O2 (stereo not drawn)		2.2 µM	7.27	16 µM	
CC(C)CC(=O)c1c(O)cc2c(c1O)C(CC(C)C)C1=C(CCCC1=O)O2 (stereo not drawn)		3 µM	5.33	16 µM	
CC(C)CC(=O)c1c(O)cc(O)c2c1OC1=C(C(=O)C(C)(C)C(=O)C1(C)C)C2C(C)C (racemic)		3.75 µM	< 4	10 µM	
CC1(C)C(=O)C2=C(Oc3cc(O)cc(O)c3C2c2ccccc2)C(C)(C)C1=O (stereo not drawn)		8 µM	2.25	18 µM	
CCCCC(=O)c1c(O)cc2c(c1O)C(CC(C)C)C1=C(O2)C(C)(C)C(=O)C(C)(C)C1=O (stereo not drawn)	1.2 µM	0.5 µM	20	8 µM	1.2 µM
CC(C)C(=O)c1c(O)cc2c(c1O)C(C(C)C)C1=C(O2)C(C)(C)C(=O)C(C)(C)C1=O (racemic)		0.78 µM	26.8	20.9 µM	
CC(C)C1C2=C(Oc3cc(O)cc(O)c31)C(C)(C)C(=O)C(C)(C)C2=O (stereo not drawn)		9 µM	2.22	20 µM	
CC(C)CC(=O)c1c(O)cc2c(c1O)[C@@H](CC(C)C)C1=C(O2)C(C)(C)C(=O)C(C)(C)C1=O		0.41 µM	18.3	7.5 µM	
CC(C)CC1C2=C(Oc3c(C(=O)C4CCC4)c(O)cc(O)c31)C(C)(C)C(=O)C(C)(C)C2=O (stereo not drawn)		5.5 µM	< 2.72	10 µM	
CCC1C2=C(Oc3cc(O)c(C(=O)CC(C)C)c(O)c31)C(C)(C)C(=O)C(C)(C)C2=O (stereo not drawn)	0.6 µM	0.8 µM	7.5	6 µM	0.5 µM
CCC(=O)c1c(O)cc2c(c1O)C(CC(C)C)C1=C(O2)C(C)(C)C(=O)C(C)(C)C1=O (stereo not drawn)	1.4 µM	0.7 µM	13.9	7 µM	1.3 µM
CC(C)CC(=O)c1c(OS(=O)(=O)C(F)(F)F)cc2c(c1O)C(CC(C)C)C1=C(O2)C(C)(C)C(=O)C(C)(C)C1=O (stereo not drawn)	1 µM	1.2 µM	16.7	20 µM	0.6 µM

Structure (SMILES)	IC50 [1]	IC50 [2]	selectivity ratio [3]	CC50 at 24 h [4]	IC50 [5]
CC(C)CC(=O)c1c(O)c(Br)c2c(c1O)C(CC(C)C)C1=C(O2)C(C)(C)C(=O)C(C)(C)C1=O (stereo not drawn)	0.6 µM	0.6 µM	11.7	7 µM	0.7 µM
CC(C)CC(=O)c1c(O)cc2c(c1O)C(Cc1ccccc1)C1=C(O2)C(C)(C)C(=O)C(C)(C)C1=O (stereo not drawn)	0.6 µM	0.6 µM	21.7	13 µM	0.6 µM
CC(C)CC(=O)c1c(O)cc2c(c1O)C(C(C)C)C1=C(O2)C(C)(C)C(=O)C(C)(C)C1=O (stereo not drawn)	0.6 µM	0.63 µM	15.9	10 µM	0.7 µM
CC(C)CC(=O)c1c(O)cc2c(c1O)C(c1ccccc1)C1=C(O2)C(C)(C)C(=O)C(C)(C)C1=O (stereo not drawn)	0.4 µM	0.45 µM	24.4	11 µM	0.3 µM
CCCCC1C2=C(Oc3cc(O)c(C(=O)CC(C)C)c(O)c31)C(C)(C)C(=O)C(C)(C)C2=O (stereo not drawn)	0.6 µM	1 µM	10	10 µM	0.4 µM
CC(C)CC(=O)c1c(O)cc2c(c1O)[C@H](CC(C)C)C1=C(O2)C(C)(C)C(=O)C(C)(C)C1=O		0.39 µM	18.7	7.28 µM	
CC(C)CC1C2=C(Oc3cc(O)c(C(=O)Cc4ccc(F)cc4)c(O)c31)C(C)(C)C(=O)C(C)(C)C2=O (stereo not drawn)	0.2 µM	0.35 µM	17.1	6 µM	0.2 µM
CC(=O)c1c(O)cc2c(c1O)C(CC(C)C)C1=C(O2)C(C)(C)C(=O)C(C)(C)C1=O (stereo not drawn)		0.9 µM	13.4	12.5 µM	
CC(C)CC(=O)c1c(O)cc2c(c1O)[C@H](CC(C)C)C1=C(C[C@H](C)CC1=O)O2		2.25 µM	8.89	20 µM	
COc1cc2c(c(OC)c1C(=O)CC(C)C)C(CC(C)C)C1=C(O2)C(C)(C)C(=O)C(C)(C)C1=O (stereo not drawn)		50 µM		> 100 µM	
COc1cc2c(c(O)c1C(=O)CC(C)C)C(CC(C)C)C1=C(O2)C(C)(C)C(=O)C(C)(C)C1=O (stereo not drawn)		> 100 µM		> 100 µM	
CC(C)CC(=O)c1c(O)cc2c(c1O)[C@H](CC(C)C)C1=C(O2)C(C)(C)[C@@H](O)C(C)(C)C1=O		2.5 µM	3	7.5 µM	
CCC1C2=C(Oc3c(C(=O)CC(C)C)c(O)cc(O)c31)C(C)(C)C(=O)C(C)(C)C2=O (racemic)		1.5 µM	< 10	10 µM	
CCCC(=O)c1c(O)cc2c(c1O)C(CC(C)C)C1=C(O2)C(C)(C)C(=O)C(C)(C)C1=O (stereo not drawn)	0.8 µM	0.5 µM		10 µM	0.6 µM
CC(C)CC(=O)c1c(O)cc2c(c1O)C(C)C1=C(O2)C(C)(C)C(=O)C(C)(C)C1=O (racemic)		0.8 µM	< 18.8	10 µM	
CC(C)CC1C2=C(Oc3c(C(=O)C(C)C)c(O)cc(O)c31)C(C)(C)C(=O)C(C)(C)C2=O (racemic)		3.5 µM	3.65	12.8 µM	
CC(C)CC1C2=C(Oc3cc(O)c(C(=O)c4ccccc4)c(O)c31)C(C)(C)C(=O)C(C)(C)C2=O (stereo not drawn)		2.5 µM	4	10 µM	
CC(=O)c1c(O)cc(O)c2c1OC1=C(C(=O)C(C)(C)C(=O)C1(C)C)C2CC(C)C (stereo not drawn)		10 µM	> 10	> 100 µM	
CC(C)CC1C2=C(Oc3cc(O)cc(O)c31)C(C)(C)C(=O)C(C)(C)C2=O (stereo not drawn)		7 µM	1.86	13 µM	
CC(C)CC(=O)c1c(O)cc2c(c1O)[C@@H](CC(C)C)C1=C(C[C@H](C)CC1=O)O2		2 µM	7	14 µM	
